# Data reported in patent publication US20260243686A1, “REAL TIME DETECTION AND QU[…] PLANT INNATE IMMUNITY RESPONSE USING RAMAN SPECTROSCOPY” (TEMASEK LIFE SCIENCES […], priority 2021, published 2026).
# Ends that are not written are not given here.
# Columns and labels:
# [1] = tested on: PTI response in Arabidopsis thaliana (Col-0) leaves; experiment: Raman spectroscopy of elicitor-infiltrated leaves, Elicitor Response Factor (ERF); assay type: in vivo; conditions: for ERF (Elicitor Response Factor) value: WT Col-0, 1 μM elicitor, proximal region, 10 hpi; for ERF value: proximal region (PR), 48 and 72 hpi
# Procedure: Plant growth and elicitor/pathogen infiltration: Arabidopsis thaliana (Col-0) wild-type (WT) and mutants including fls2 (salk_062054), efr-2 (salk_068675), bak1 (salk_116202), bik1 (salk_005291), rbohd (salk_083046), pub12/13 (Zhou et al., 2018) and pub25/26 (Wang et al., 2018) were used. Ten-day old seedlings grown on soil were transferred to a growth room at 70% humidity and 21° C. with a 10-h-light/14-h-dark photoperiod (short-day condition). Light intensity was 100 μmol/m^2s^−1. Five to 6 week-old plants with about 17-18 leaves were used. Flg22 contains the 22-amino acid sequence […] (SEQ ID NO:1) corresponding to a conserved motif of the amino terminus of flagellin from Pseudomonas species. Elf18 contains the sequence Ac[…] (SEQ ID NO:2) corresponding to the conserved N-terminal 18-amino acid peptide of the bacterial protein elongation factor Tu (EF-Tu). These peptides (Axil Scientific Pte Ltd) were dissolved in sterile H2O to a concentration of 5 mM and aliquots of 100 μM stock solution were stored at −20° C. 3-hydroxydecanoic acid (Sigma, H3648) (Kutschera et al., 2019) was dissolved in ethanol to a concentration of 5 mM, and Chitin, GlcNacβ1-4[GlcNacβ1-4GlcNAc]5GlcNAc (ELICITYL, GLU437) was dissolved in water to a concentration of 5 mM. Aliquots of 100 μM stock solutions were stored at −20° C.
# Custom-built Raman spectroscopy system and spectral data analysis: The Raman spectroscopy system with an 830 nm excitation wavelength was previously described (Huang et al., 2020). The Raman shift axis was calibrated using a polystyrene sample (Creely et al., 2005) and Raman spectra were recorded in the range of 400 cm^−1-1700 cm^−1. The 830 nm excitation wavelength has the advantage of deeper penetration depth and generating comparatively lower fluorescence background signal from the leaf tissue, resulting in spectra with a higher signal to noise ratio (SNR). The pre-processing of the Raman spectra consisted of cosmic ray removal and smoothing with the Savitzky-Golay filter function (MATLAB Inc., USA) with 5th order polynomial and frame length of 11. The Raman spectra presented here were obtained after removing any residual fluorescence background using a polynomial subtraction method with non-negative constraints (Lieber & Mahadevan-Jansen, 2003).
# For Arabidopsis, two plants from each independent biological sample were investigated (Huang et al., 2020). The 7th or 8th leaf of 5-6 week-old plants were used for infiltrations (FIGS. 1A-1E) At the designated time after infiltrations, leaf discs (6 mm diameter) were excised with a puncher from regions proximal to the infiltrated sites (FIG. 2A). Two leaf discs were obtained from each elicitor-treated leaf, one from the left and the other from the right side of the central leaf vein. A total of 4 leaf discs were analyzed for each genotype per experiment. The leaf discs were placed with a drop of water between a fused silica slide of thickness 0.5 mm and a fused silica coverslip, which was 100 μm thick. Three locations were measured in each leaf disc, with 5 Raman spectra acquired per location and an exposure time of 10 s per spectrum. Thus, an average Raman spectrum of an independent biological sample was obtained from the mean of total 60 Raman spectra. The experiments were repeated with 3-4 independent biological samples.
# A custom-built near infrared excitation Raman instrument (FIG. 1E) to measure Raman spectra from mock- or elicitor-infiltrated leaf samples (FIGS. 2B-2C). […]
# [2] = tested on: PTI response in Arabidopsis thaliana (Col-0) leaves; experiment: as above; assay type: in vivo; conditions: WT, 1 μM elicitor, distal region (DR)
# [3] = tested on: PTI-specific marker genes in Arabidopsis leaves; experiment: Gene expression analysis of PTI marker genes by qRT-PCR; assay type: in vivo, Arabidopsis thaliana; conditions: infiltrated leaves, 1.0 μM elicitor
# Procedure: RNA extraction and gene expression analysis by qRT-PCR: Total RNA was extracted from the entire infiltrated leaf using RNeasy plant mini kit (74104; Qiagen) with DNase I (79254; Qiagen) treatment. cDNA synthesis and RT-PCR were performed as described (Park et al., 2019). Expression of the Arabidopsis Act2 (At3g18780) was used as an internal control. Primer pairs for quantitative RT-PCR were designed using Primer-BLAST (https://www.ncbi.nlm.nih.gov/tools/primer-blast/index.cgi) or manually by eye.
# flg22 and elf18 were used to induce plant innate immunity responses without related pathogenic symptoms (Bektas & Eulgem, 2015). To reduce variability between biological samples, Arabidopsis wild-type (Col-0) and mutant plants were grown under short-day conditions for about 5-6 weeks with about 17-18 leaves (Farmer et al., 2013; Kurenda et al., 2019) (FIG. 1A). The abaxial side of leaf 7th or 8th was infiltrated with a needleless syringe containing (50 μl) water, 1.0 μM flg22 or 1.0 μM elf18 (FIG. 1B). […] However, compared to mock infiltration, infiltration of either elicitor induced expression of PTI-specific marker genes of the PTI pathway but with different kinetics (FIGS. 3A-3C). […] Expression of most activated genes returned to basal levels by 24 hours (FIGS. 3A-3C) although several genes (PR1, WRYK29, and WRKY53) still maintained high expression levels at this time point.
# [4] = fls2 mutant, 24 hpi, 1 μM elicitor
substance,measurement,setting,value
QRLSTGSRINSAKDDAAGLQIA (SEQ ID NO:1) (listed as Pseudomonas sp.) [flg22],ERF (Elicitor Response Factor) value,[1],1.12×10^4
same,increase of ERF value from 10 hpi to 24 hpi,"[1]; WT, 1 μM elicitor",about 8 times
same,ERF value,"[1]; WT, 1 μM elicitor",decreased to almost zero
same,Raman peak intensity at 789.7 cm^−1,"[1]; WT, 24 hpi",statistically significant change
same,Raman/ERF response,"[1]; efr-2 mutant, 24 hpi, 1 μM elicitor",responded
same,Raman/ERF response,[1]; [4],refractory
same,ERF value,[2],Low ERF values
same,innate immunity response (gene expression and callose deposition data together),[3],induced rapid and robust innate immunity response
"AcSKEKFERTKPHVNVGTIG (SEQ ID NO:2) (Ac-SKEKFERTKPHVNVGTIG; listed as Pseudomonas sp.) [elf18, conserved N-terminal 18-amino acid peptide of the bacterial protein elongation factor Tu (EF-Tu)]",ERF (Elicitor Response Factor) value,[1],0.63×10^4
same,ERF value,"[1]; WT, 1 μM elicitor",decreased to almost zero
same,Raman peak at 1065 cm^−1,"[1]; WT, 24 hpi",specifically resulted in changes
same,Raman/ERF response,[1]; [4],remained responsive
same,ERF value,[2],Lower ERF value
same,innate immunity response (gene expression and callose deposition data together),[3],induced rapid and robust innate immunity response
